Test systems include ACHN; CAKI-1; COLO 205; DU-145; EKVX; HCT-15; LOX IMVI; M14; MDA-MB-231; NCI-H226; NCI-H23; NCI-H460; NCI/ADR-RES; RPMI-8226; RXF 393; SK-MEL-28; SN12C; SNB-75; SW-620; T47D.
What all share (experiment): NCI tumour cell line growth inhibition, 48 h

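In this assay, cells in 96-well plates receive the compound at five concentrations for 48 hours. Endpoints are linearly interpolated between the surrounding concentrations. The concentration for 50% growth inhibition is given as GI50.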 The source made the active and inactive calls. Cut-off read from the data, not from the text of the source: active = GI50 up to about 1.1 µM and inactive = higher.

Take `COc1cccc2c3cccc(OC)c3c3[nH]cnc3c12`: the GI50 in the test with ACHN was 8.81 µM (inactive); in the test with CAKI-1 it was 16.9 µM (inactive); in the test with COLO 205, 16.5 µM (inactive); with DU-145, 1.31 µM (inactive); in the test on EKVX, 14.7 µM (inactive); in the test on HCT-15, 1.76 µM. Besides, the GI50 in the test on LOX IMVI is 1.98 µM (inactive); with M14 it was 1.71 µM (inactive); in the test on MDA-MB-231, 1.87 µM (inactive); in the test on NCI-H226 it was 15.9 µM (inactive); in the test on NCI-H23 it was 1.84 µM (inactive); with NCI-H460, 1.72 µM (inactive). Moreover, the GI50 in the test with NCI/ADR-RES was 3.09 µM (inactive); in the test with RPMI-8226, 2.53 µM (inactive); in the test on RXF 393 it was 1.78 µM (inactive); in the test on SK-MEL-28, 5.24 µM (inactive); in the test with SN12C, 5.45 µM (inactive); in the test on SNB-75, 4.3 µM (inactive). Also, the GI50 in the test on SW-620 is 1.73 µM (inactive); with T47D, 6.24 µM (inactive).

As for `C=C1[C@H](OCC(C)C)[C@@H](OC(=O)C(C)CC)[C@@H](O)C(C)(C)/C=C/[C@H](C)C(=O)[C@@]2(O)C[C@H](C)[C@H](O)[C@@H]2[C@H]1OC(=O)C(C)CC` (stereo not given in full), the GI50 in the test on ACHN was 3.02 µM (inactive); in the test on CAKI-1, 3.32 µM (inactive); in the test on COLO 205, 0.904 µM (active); in the test on DU-145, 7.83 µM (inactive); with EKVX, 8.83 µM (inactive); in the test with HCT-15 it was 7.82 µM. For the same molecule, the GI50 in the test on LOX IMVI was 4.2 µM (inactive); in the test on M14 it was 2.15 µM (inactive); in the test on MDA-MB-231, 4.01 µM (inactive); in the test with NCI-H226, 5.73 µM (inactive); in the test on NCI-H23, 5.2 µM (inactive); in the test with NCI-H460, 0.463 µM (active). Moreover, the GI50 is 6.82 µM (inactive) with NCI/ADR-RES; 0.516 µM (active) in the test on RPMI-8226; 6.14 µM (inactive) with RXF 393; 10.2 µM (inactive) with SK-MEL-28; 7.29 µM (inactive) with SN12C; 1.41 µM (inactive) with SNB-75. Also, the GI50 was 5.24 µM (inactive) with SW-620 and > 13.1 µM (inactive) in the test on T47D.

For the molecule `N#Cc1c(Cl)nc2ccccc2c1N=[N+]=[N-]`, the GI50 is 2.11 µM (inactive) in the test on ACHN; 1.68 µM (inactive) with CAKI-1; 1.88 µM (inactive) in the test on COLO 205; 14.9 µM (inactive) in the test with DU-145; 2.25 µM (inactive) with EKVX; 2.02 µM in the test with HCT-15. Besides, the GI50 with LOX IMVI was 1.67 µM (inactive); with M14, 2.84 µM (inactive); with MDA-MB-231, 1.89 µM (inactive); in the test with NCI-H226 it was 12.5 µM (inactive); with NCI-H23, 2.52 µM (inactive); with NCI-H460 it was 5.19 µM (inactive). For the same molecule, the GI50 in the test on NCI/ADR-RES is 9.33 µM (inactive); in the test with RPMI-8226, 2.11 µM (inactive); in the test with RXF 393, 1.44 µM (inactive); in the test on SK-MEL-28 it was 2.95 µM (inactive); with SN12C, 5.14 µM (inactive); in the test on SNB-75, 8.67 µM (inactive). For the same molecule, the figures for the GI50 with SW-620 and with T47D were 1.73 µM (inactive) and 2.47 µM (inactive), respectively.

As for `COC(=O)[C@H](Cc1c[nH]c2ccccc12)NC(=O)c1ccc(CNC(=O)/C(C)=C/c2ccccc2)cc1`, the GI50 in the test with ACHN is 52.5 µM (inactive); in the test with CAKI-1, > 100 µM (inactive); with COLO 205, 22.8 µM (inactive); in the test on DU-145 it was 32.5 µM (inactive); with EKVX, 57.3 µM (inactive); in the test on HCT-15, 48.1 µM. The GI50 was 44.3 µM (inactive) in the test with LOX IMVI; 15.9 µM (inactive) with M14; 17.8 µM (inactive) with MDA-MB-231; > 100 µM (inactive) in the test with NCI-H226; 25.7 µM (inactive) with NCI-H23; 27.9 µM (inactive) in the test on NCI-H460. Also, the GI50 with NCI/ADR-RES was 52.8 µM (inactive); with RPMI-8226 it was 46 µM (inactive); in the test with RXF 393, < 0.01 µM (active); in the test on SK-MEL-28, 18.2 µM (inactive); with SN12C, > 100 µM (inactive); in the test with SNB-75 it was 0.497 µM (active). For the same molecule, the values for the GI50 in the test on SW-620 and in the test with T47D were > 100 µM (inactive) and 3.7 µM (inactive), respectively.
